Results from patent US20210255184A1, “Biosensor Device and Methods” (The New Zealand Institute for Plant and Food Research …, priority 2018, published 2021).

Tests used:
Or22a/Orco = biological target: T1, Or22a/Orco (Drosophila melanogaster, UniProt P81909); experiment: GFET sensor, Or22a/Orco liposomes; assay type: biochemical; conditions: Table 4, GFET
T1 construct: his-tag; made in house; host or cells: baculovirus-infected Sf9 cells
T1 sequence (P81909 1-397): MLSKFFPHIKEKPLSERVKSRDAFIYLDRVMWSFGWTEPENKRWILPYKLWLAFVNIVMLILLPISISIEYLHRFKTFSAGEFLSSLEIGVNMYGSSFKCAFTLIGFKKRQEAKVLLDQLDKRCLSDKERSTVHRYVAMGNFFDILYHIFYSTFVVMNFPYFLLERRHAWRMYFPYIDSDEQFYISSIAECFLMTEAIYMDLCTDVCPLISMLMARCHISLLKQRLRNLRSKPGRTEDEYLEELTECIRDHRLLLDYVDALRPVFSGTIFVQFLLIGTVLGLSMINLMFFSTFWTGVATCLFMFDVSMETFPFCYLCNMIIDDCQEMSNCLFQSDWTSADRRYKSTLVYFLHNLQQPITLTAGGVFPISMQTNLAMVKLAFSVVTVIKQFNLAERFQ
T1 sequence (Q9VNB5 1-486 partner): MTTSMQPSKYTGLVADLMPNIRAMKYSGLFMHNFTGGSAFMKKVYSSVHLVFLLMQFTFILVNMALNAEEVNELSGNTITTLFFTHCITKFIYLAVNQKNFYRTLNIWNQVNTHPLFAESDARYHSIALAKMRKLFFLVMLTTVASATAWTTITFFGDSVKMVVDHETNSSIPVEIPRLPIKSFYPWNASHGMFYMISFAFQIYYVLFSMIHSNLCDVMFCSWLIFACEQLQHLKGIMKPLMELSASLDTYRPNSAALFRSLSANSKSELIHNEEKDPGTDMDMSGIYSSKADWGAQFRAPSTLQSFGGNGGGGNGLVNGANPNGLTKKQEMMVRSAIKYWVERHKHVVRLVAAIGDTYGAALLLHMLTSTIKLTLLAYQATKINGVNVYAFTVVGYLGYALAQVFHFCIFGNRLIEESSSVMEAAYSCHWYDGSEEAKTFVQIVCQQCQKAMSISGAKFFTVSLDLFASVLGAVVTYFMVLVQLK
Excerpt: (§1) The GFETs used in this study were fabricated from a predeposited graphene film on 300 nm SiO2 coated Si substrate from ACS Suppliers, USA. The FETs consist of a channel with dimensions of 100 μm width and […]. The key steps involved in fabricating the GFET on a Si/SiO2 substrate is schematically illustrated in FIG. 12. The source and drain electrodes were defined by photolithography and formed by successive deposition of Cr and Au. Both the drain and source electrodes were then encapsulated using AZ1518 photoresist and a channel with dimensions of 100 μm width and 10 μm length was left open to the environment for gating and functionalisation.
(§2) The OR liposomes were functionalised onto the graphene surface via a non-covalent route using PBASE as the molecular linker as shown in FIG. 13. The OR liposomes were diluted at 1:10 ratio with 1×PBS (pH7.4). The cleaned GFETs were immersed in 1 mM PBASE solution in methanol for 1 hour. […]
(§3) Electrical sensor measurements of OR liposome functionalised GFETs were carried out using top liquid gate morphology as shown in the schematic in FIG. 15 (a). […] The transfer characteristics of the different graphene FETs (FIG. 15 (b) to (g)) were measured at Vds=1 mV while the liquid gate voltage Vlg was swept from −0.5 V to 1 V with an interval of 20 mV. […]

Or10a/Orco = biological target: T2, Or10a/Orco (Drosophila melanogaster, UniProt Q9VYZ1); experiment: GFET sensor, Or10a/Orco liposomes; assay type: biochemical; conditions: Table 4, GFET
T2 construct: his-tag; made in house; host or cells: baculovirus-infected Sf9 cells
T2 sequence (Q9VYZ1 1-406): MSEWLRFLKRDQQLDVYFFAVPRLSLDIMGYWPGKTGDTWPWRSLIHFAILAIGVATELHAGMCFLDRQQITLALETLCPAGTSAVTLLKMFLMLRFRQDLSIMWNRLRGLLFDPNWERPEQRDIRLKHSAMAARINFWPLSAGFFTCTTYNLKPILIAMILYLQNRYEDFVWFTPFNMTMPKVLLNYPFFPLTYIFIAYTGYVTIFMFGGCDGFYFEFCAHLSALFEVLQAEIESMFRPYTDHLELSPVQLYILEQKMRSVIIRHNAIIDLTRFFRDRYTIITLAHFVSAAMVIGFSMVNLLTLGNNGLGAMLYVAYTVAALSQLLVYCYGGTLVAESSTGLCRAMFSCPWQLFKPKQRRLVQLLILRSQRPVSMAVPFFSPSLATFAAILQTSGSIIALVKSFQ
T2 sequence (Q9VNB5 1-486 partner): T1 sequence (Q9VNB5 1-486 partner)
Excerpt: as §1, §2, §3

Row | SMILES | Detection Range (Or22a/Orco) | EC50 (Or22a/Orco) [pM] | Detection Range (Or10a/Orco) | EC50 (Or10a/Orco) [pM]
1 | CCCCCC(=O)OC [methyl hexanoate] | 10^−13-10^−8 M | 3.91 |  | 
2 | COC(=O)c1ccccc1O [methyl salicylate] |  |  | 10^−13-10^−8 M | 2.07
